# Measurements: patent US12534699B2, “Method for promoting growth of bacteria of genus Bifidobacterium” (KABUSHIKI KAISHA YAKULT HONSHA, priority 2019, dated 2026)
# Test system: Bifidobacterium breve YIT 12272 (BbY)
# Test: Culture of BbY in skimmed milk culture medium with L-cystine or L-cysteine (simultaneous / individual heating)
# Format: cell-based
# Details: for growth rate of the viable cell count, simultaneous versus individual heating (growth curve): final concentration 0.03% (w/v), FIG. 2; for viable cell count and acidity versus culture medium not containing L-cystine and L-cysteine: simultaneous heating culture medium (skimmed milk or whey), 0.001 to 0.1% (w/v), FIGS. 3 and 4; for concentration at which the viable cell count was maximum: skimmed milk simultaneous heating culture medium, culture time 9 hours
# Procedure: Bifidobacterium breve YIT 12272 (hereinafter, referred to as BbY), Bifidobacterium bifidum YIT 10347 (hereinafter, referred to as BF-1), Lactobacillus casei YIT 9029 (hereinafter, referred to as YIT 9029), and Lactobacillus acidophilus YIT 0198 (hereinafter, referred to as YIT 0198) were used.
# A skimmed milk powder (ABC, manufactured by MEGMILK SNOW BRAND Co., Ltd.) was dissolved in RO water at 12% (w/v), the solution was dispensed in 10 mL aliquots in a rimmed medium-sized test tube while replacing the headspace with nitrogen gas and sealed with a butyl rubber stopper. […] In addition, a skimmed milk culture medium (simultaneous heating culture medium) was prepared in anaerobic conditions by adding an L-cystine (manufactured by Kyowa Hakko Bio Co., Ltd.) aqueous suspension or an L-cysteine hydrochloride (manufactured by Nichiri Kagaku Co., Ltd.) aqueous solution to a skimmed milk culture medium at a final concentration of 0.05 (w/v) % and performing heat sterilization after the addition of the suspension or the solution, and a skimmed milk culture medium (individual heating culture medium) was prepared in anaerobic conditions by adding the suspension or the solution to a skimmed milk culture medium at a final concentration of 0.05 (w/v) % after heat sterilization and immediately before inoculation. Here, the L-cystine aqueous suspension and the L-cysteine hydrochloride aqueous solution were prepared as a 5% (w/v) aqueous suspension and a 5% (w/v) aqueous solution, respectively, and were added to each culture medium at an amount of 1% (v/v). In order to unify the changes in the concentration and the changes in the redox potential of samples due to the addition of the solution, 1% (v/v) of sterilized water was added to the simultaneous heating culture medium immediately before inoculation, to the individual heating culture medium before heating, and to the additive-free culture medium before heating and immediately before inoculation, i.e., twice.
# When bacteria were inoculated, inoculation was performed while replacing the headspace of the container with nitrogen gas, and the nitrogen gas was sealed with a butyl rubber stopper, followed by culture. The culture was performed in a thermostat water bath set to 37° C. for 12 hours.
# The pH of a culture medium or a bacterial solution was measured using a desk-top pH meter (F52, manufactured by HORIBA, Ltd.).
# The amount of a 0.1 N sodium hydroxide aqueous solution for 9.0 g of a bacterial solution required to reach a pH of 8.5 was defined as acidity. The measurement was performed using an automatic titrator (manufactured by HIRANUMA Co., Ltd.).
# Regardless of the bacterial strain, a bacterial solution was appropriately diluted with a 0.85% (w/v) sodium chloride aqueous solution (physiological saline solution). The diluted bacterial solution was inoculated with a spiral plater EDDY JET (manufactured by IUL Instruments GmbH) on a plate culture medium of TOS propionate agar medium (manufactured by Yakult Pharmaceutical Industry Co., Ltd.) in the case of bacteria of the genus Bifidobacterium and a plate culture medium of BCP Added Plate Count medium (manufactured by EIKEN CHEMICAL CO., LTD.) in the case of bacteria of the genus Lactobacillus, followed by culture at 37° C. for 48 to 72 hours. The grown colonies were counted as the viable cell count. The bacteria of the genus Lactobacillus were cultured in aerobic conditions, and the bacteria of the genus Bifidobacterium were cultured in anaerobic conditions (Anaero Pack, manufactured by MITSUBISHI GAS CHEMICAL COMPANY, INC.). Colonies were counted using a colony counter ProtoCOL (manufactured by Synoptics Ltd.).
# As in Example 1, each simultaneous heating culture medium of milk and L-cystine or L-cysteine was prepared. The addition concentration of L-cystine or L-cysteine was adjusted to 0.001, 0.003, 0.005, 0.01, 0.03, 0.05, or 0.1% (w/v) as the final concentration. […]
# [1] = BbY, milk, L-cysteine 0.03% (w/v), filter sterilization (0.22 μm, no heating), culture time 9 h
# [2] = BbY, milk, L-cysteine 0.03% (w/v), filter sterilization (0.22 μm, no heating), culture time 12 h
# [3] = BbY, milk, L-cysteine 0.03% (w/v), individual heating, culture time 9 h
# [4] = BbY, milk, L-cysteine 0.03% (w/v), individual heating, culture time 12 h
# [5] = BbY, milk, L-cysteine, simultaneous heating, culture time 9 h
# [6] = BbY, milk, L-cysteine, simultaneous heating, culture time 12 h
# [7] = BbY, skimmed milk, 0.05 (w/v) %, cultured 12 hours
# [8] = BbY, skimmed milk, L-cystine 0.03% (w/v), 115° C. for 30 min, after heat sterilization (individual heating), 12 hours
# [9] = BbY, skimmed milk, L-cystine 0.03% (w/v), 115° C. for 30 min, before heat sterilization (simultaneous heating), 12 hours
# [10] = BbY, skimmed milk, L-cystine 0.03% (w/v), 121° C. for 30 min, after heat sterilization (individual heating), 12 hours
# [11] = BbY, skimmed milk, L-cystine 0.03% (w/v), 121° C. for 30 min, before heat sterilization (simultaneous heating), 12 hours
smiles,measurement,setting,value
"Cl.N[C@@H](CS)C(=O)O [L-cysteine, L-cysteine hydrochloride]","growth rate of the viable cell count, simultaneous versus individual heating (growth curve)",BbY,higher in the case of the simultaneous heating
same,Acidity,[1],3.62 ml/9 g
same,Viable cell count,[1],8.92 × 10^8 CFU/ml
same,pH,[1],5.40
same,Acidity,[2],5.12 ml/9 g
same,Viable cell count,[2],1.64 × 10^9 CFU/ml
same,pH,[2],4.94
same,Acidity,[3],3.59 ml/9 g
same,Viable cell count,[3],7.77 × 10^8 CFU/ml
same,pH,[3],5.42
same,Acidity,[4],5.04 ml/9 g
same,Viable cell count,[4],1.78 × 10^9 CFU/ml
same,pH,[4],5.02
same,Acidity,[5],4.47 ml/9 g
same,Viable cell count,[5],1.34 × 10^9 CFU/ml
same,pH,[5],5.17
same,Acidity,[6],8.05 ml/9 g
same,Viable cell count,[6],3.46 × 10^9 CFU/ml
same,pH,[6],4.64
same,viable cell count and acidity versus culture medium not containing L-cystine and L-cysteine,BbY,increased
same,concentration at which the viable cell count was maximum,BbY,0.03 % (w/v)
same,promotion of growth by simultaneous heating with milk,FIGS. 1 and 2,promotion of growth was observed
same,"difference in the culture state of BbY, individual heating versus filter sterilization",L-cysteine added to milk at 0.03% (w/v),no difference
N[C@@H](CSSC[C@H](N)C(=O)O)C(=O)O [L-cystine],"growth rate of the viable cell count, simultaneous versus individual heating (growth curve)",BbY,higher in the case of the simultaneous heating
same,viable cell count and acidity versus culture medium not containing L-cystine and L-cysteine,BbY,increased
same,concentration at which the viable cell count was maximum,BbY,0.01 % (w/v)
same,acidity higher with simultaneous heating than individual heating,[7],1.3 mL/9 g
same,viable cell count increase compared to absence of L-cystine,[7],5.6 times
same,"viable cell count, simultaneous heating versus individual heating",[7],the same
same,Acidity,[8],3.82 mL/9 g
same,Viable cell count,[8],1.29 × 10^9 CFU/mL
same,pH,[8],5.34
same,Acidity,[9],5.40 mL/9 g
same,Viable cell count,[9],1.89 × 10^9 CFU/mL
same,pH,[9],5.00
same,Acidity,[10],4.00 mL/9 g
same,Viable cell count,[10],1.12 × 10^9 CFU/mL
same,pH,[10],5.26
same,Acidity,[11],5.42 mL/9 g
same,Viable cell count,[11],1.86 × 10^9 CFU/mL
same,pH,[11],4.96
